This is an account of results in PMC2823940 (Bioorganic chemistry, 2009).

Data set [1] has as its target T1, HpAgD (Helicobacter pylori, UniProt O24890). The experiment in a line: Determination of IC50 values against HpAgD. It counts as biochemical. To be noted: for inhibition of HpAgD: concentrations as high as 500 μM.
For the next data set, the target named is PAD4 (Homo sapiens, UniProt Q9UM07). Nature of the data set: PAD4 inhibition. It is filed as biochemical. Particulars: for inhibition of PAD4: concentrations as high as 1 mM.
Chain of PAD4 (Q9UM07 whole entry): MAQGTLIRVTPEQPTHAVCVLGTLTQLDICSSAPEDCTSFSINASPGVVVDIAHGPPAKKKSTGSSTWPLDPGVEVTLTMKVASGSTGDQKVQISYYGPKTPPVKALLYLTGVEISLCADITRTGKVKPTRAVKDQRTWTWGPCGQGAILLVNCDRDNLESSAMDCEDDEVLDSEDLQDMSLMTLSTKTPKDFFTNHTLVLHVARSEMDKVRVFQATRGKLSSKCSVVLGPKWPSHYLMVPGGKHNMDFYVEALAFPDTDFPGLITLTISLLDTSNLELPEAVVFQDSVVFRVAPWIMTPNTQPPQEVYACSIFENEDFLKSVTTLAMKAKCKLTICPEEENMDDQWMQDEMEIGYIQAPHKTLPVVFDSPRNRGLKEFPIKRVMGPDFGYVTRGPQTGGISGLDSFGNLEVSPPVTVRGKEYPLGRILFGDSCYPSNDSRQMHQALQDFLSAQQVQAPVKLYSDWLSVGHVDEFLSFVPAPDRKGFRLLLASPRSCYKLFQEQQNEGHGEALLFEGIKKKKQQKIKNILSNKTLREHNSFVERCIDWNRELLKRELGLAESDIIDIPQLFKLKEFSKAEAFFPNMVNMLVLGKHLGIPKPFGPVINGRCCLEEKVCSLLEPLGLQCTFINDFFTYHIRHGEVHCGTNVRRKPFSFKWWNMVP
The target in data set [2] is T1, HpAgD. The experiment in a line: Inactivation kinetics of HpAgD. It counts as biochemical.
Data set [3] deals with T1, HpAgD. Nature of the data set: Irreversibility of inactivation. It is filed as biochemical. To be noted: 1.0 mM inhibitor, 1 h at 37 °C, dialyzed 20 h.
Data set [4] addresses T1, HpAgD. Nature of the data set: Substrate protection experiments. It counts as biochemical. Particulars: agmatine 0.5 vs 1.0 mM; ABFA 500 μM or ABCA 175 μM.
Data set [5] concerns the target T1, HpAgD. Nature of the data set: Site of inactivator modification. Particulars: 5 eq. inactivator, 30 min, tryptic digest.
A short description of data set [6]: Stability in aqueous buffer. It is filed as physicochemical. To be noted: not shown.
A further data set relates to D198A HpAgD. It counts as biochemical, Helicobacter pylori.
The target in another data set is T2, Wild Type HpAgD (Helicobacter pylori, UniProt O24890).
T2 sequence (O24890 1-330): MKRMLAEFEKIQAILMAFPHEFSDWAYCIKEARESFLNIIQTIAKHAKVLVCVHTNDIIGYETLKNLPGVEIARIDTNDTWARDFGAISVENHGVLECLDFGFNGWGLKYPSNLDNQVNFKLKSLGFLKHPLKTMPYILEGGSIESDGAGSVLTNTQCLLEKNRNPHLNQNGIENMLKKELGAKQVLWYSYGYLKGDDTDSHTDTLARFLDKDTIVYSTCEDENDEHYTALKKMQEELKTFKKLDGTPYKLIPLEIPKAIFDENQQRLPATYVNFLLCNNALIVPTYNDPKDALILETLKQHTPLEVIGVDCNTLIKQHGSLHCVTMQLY
Nature of the data set: HpAgD activity assay. To be noted: for ability to serve as HpAgD substrate: known PAD substrates.

Data set [7] addresses T1, HpAgD. The experiment in a line: Metal inhibition of HpAgD. It counts as biochemical. To be noted: 15 min pre-incubation with metal ion, 5.0 mM agmatine.
In another data set the test system is N=C(N)NCCCCN. The experiment in a line: purified protein, by the assay type. To be noted: other: steady state, D198A HpAgD; pH 8.0; 37.0 °C.
Data set [8] has as its target Helicobacter pylori agmatine deiminase (HpAgD), untagged wild type (Helicobacter pylori) (UniProt O24890). The experiment in a line: SEC. (Size exclusion chromatography separates by hydrodynamic size, large species first.)
Substrate in data set [9]: N=C(N)NCCCCN
Nature of the data set: purified protein, by the assay type. To be noted: other: steady state, Wild Type HpAgD, pH 8.0, 37 °C.

Setting [10] is: read-out: IC50 HpAgD, 15 min pre-incubation, 0.5 mM Agmatine.

“Also recorded” adds a separate entry of the source. Some results are limits rather than exact numbers.

On HpAgD [1], `N=C(CCl)NCCCCN` [ABCA, N-(4-aminobutyl)-2-chloro-ethanimidamide] displayed an IC50 of 0.87 ± 0.03 µM. Further, on PAD4, the IC50 is over 1000 µM and the “inhibition of PAD4” value is “essentially no inhibition was observed”. Moreover, at HpAgD [2], the Ki worked out at 1200 ± 234 µM and the kinact/KI is 208 M⁻¹ s⁻¹. Moreover, the “residual activity after dialysis (irreversibility)” value on HpAgD [3] was “enzyme activity was not recovered; also recorded: irreversibly inhibit HpAgD”. The “substrate protection against inactivation” value on HpAgD [4] is recorded as “substrate can protect against enzyme inactivation”. Moreover, the site of modification entry at HpAgD [5] is listed as “modifying Cys324”. The “stability in aqueous buffer” value in data set [6] is on record as “excellent stability”.

Regarding `N=C(CF)NCCCCN` [ABFA, N-(4-aminobutyl)-2-fluoro-ethanimidamide], the IC50 against HpAgD [1] came out at 6.8 ± 0.26 µM. In addition, on PAD4, the IC50 is over 1000 µM and the “inhibition of PAD4” value is listed as “essentially no inhibition was observed”. For the same molecule, on HpAgD [2], the Ki came to 530 ± 150 µM and the kinact/KI was 66.7 M⁻¹ s⁻¹. For the same molecule, on HpAgD [3], the “residual activity after dialysis (irreversibility)” value was “enzyme activity was not recovered; also recorded: irreversibly inhibit HpAgD”. In addition, at HpAgD [4], the “substrate protection against inactivation” value is “substrate can protect against enzyme inactivation”. In addition, at HpAgD [5], the site of modification entry is “modifying Cys324”. Further, in data set [6], the “stability in aqueous buffer” value is reported as “excellent stability”.

On to `NCCCCN=C(N)N` [Agmatine], for which, in the data set on D198A HpAgD, the “decrease in kcat, D198A vs wild type” value is on record as 17 fold and the “increase in Km, D198A vs wild type” value is 5 fold. Moreover, the “rate (kcat/Km) relative to all other substrates tested” value on Wild Type HpAgD (Wild Type HpAgD) is given as > 10^4 fold. Also, the kcat at Wild Type HpAgD (steady state, Wild Type HpAgD, pH 8.0, 37 °C) was ~ 5 min^−1.

`NC(=O)[C@H](CCCN=C(N)N)NC(=O)c1ccccc1` [BAA, N-α-Benzoyl-L-arginine amide]: the “ability to serve as HpAgD substrate” value on Wild Type HpAgD is listed as “none of these compounds served as a substrate”.

On to `CCOC(=O)[C@H](CCCN=C(N)N)NC(=O)c1ccccc1` [BAEE, N-α-Benzoyl-L-arginine ethyl ester], for which, on Wild Type HpAgD, the “ability to serve as HpAgD substrate” value is listed as “none of these compounds served as a substrate”.

For the molecule `COC(=O)[C@H](CCCNC(=N)N)NC(=O)c1ccccc1` [BAME, N-α-Benzoyl-L-arginine methyl ester], the “ability to serve as HpAgD substrate” value on Wild Type HpAgD is listed as “none of these compounds served as a substrate”.

`NC(=O)[C@H](CCCN=C(N)CCl)NC(=O)c1ccccc1` [Cl-amidine]: the “inhibition of HpAgD” value at HpAgD [1] was “did not afford HpAgD inhibition”. Moreover, the IC50 at HpAgD [1] (setting [10]) was over 500 µM.

As to `[Co+2]` [Co^2+], at HpAgD [7], the half-maximal inhibitory concentration (IC50) was 13 ± 5.5 µM.

Regarding `NC(=O)[C@H](CCCN=C(N)CF)NC(=O)c1ccccc1` [F-amidine], the “inhibition of HpAgD” value against HpAgD [1] was “did not afford HpAgD inhibition”. Further, the IC50 at HpAgD [1] (setting [10]) was over 500 µM.

With `[Ni+2]` [Ni^2+], the midpoint of inhibition against HpAgD [7], the IC50, lay at 100 ± 3.9 µM.

Consider `[Zn+2]` [Zn^2+], for which the IC50 on HpAgD [7] came to 30 ± 3 µM.

Turning to “Ac-SGRGK-COO^− (Ac-SGRGK-OH; UniProt P62805 2-6, looked up, fragment) [Ac-H4-5]”, the “ability to serve as HpAgD substrate” value with Wild Type HpAgD was “none of these compounds served as a substrate”.

“D198A HpAgD (Helicobacter pylori 26695; D198A)”: in the data set with N=C(N)NCCCCN, the Km came to 170 ± 79.8 µM, the kcat stood at 0.00467 s⁻¹ and the kcat/Km stood at 28.3 M⁻¹ s⁻¹.

“Helicobacter pylori agmatine deiminase (HpAgD), untagged wild type (from UniProt O24890 1-330) (enzyme)”: the stoichiometry N in data set [8] came out at 2.

B1: Wild Type HpAgD (Helicobacter pylori 26695) (protein)
chain: MKRMLAEFEKIQAILMAFPHEFSDWAYCIKEARESFLNIIQTIAKHAKVLVCVHTNDIIGYETLKNLPGVEIARIDTNDTWARDFGAISVENHGVLECLDFGFNGWGLKYPSNLDNQVNFKLKSLGFLKHPLKTMPYILEGGSIESDGAGSVLTNTQCLLEKNRNPHLNQNGIENMLKKELGAKQVLWYSYGYLKGDDTDSHTDTLARFLDKDTIVYSTCEDENDEHYTALKKMQEELKTFKKLDGTPYKLIPLEIPKAIFDENQQRLPATYVNFLLCNNALIVPTYNDPKDALILETLKQHTPLEVIGVDCNTLIKQHGSLHCVTMQLY
For B1, in data set [9], the Km amounted to 33 ± 8.8 µM, the kcat came out at 0.0817 s⁻¹ and the kcat/Km amounted to 2450 M⁻¹ s⁻¹.

By IC50 is commonly meant the point on the concentration scale where inhibition reaches its midpoint. The term kinact/KI denotes the second-order rate constant of inactivation. The term kcat denotes the number of substrate molecules converted per active site and unit of time at saturation. As usually defined, the Km is the concentration of substrate that gives half-maximal velocity. What is called kcat/Km is the turnover number divided by the Michaelis constant. For orientation: stoichiometry N means the number of molecules, sites or subunits per partner or assembly.
